# Experimental data from ChEMBL document CHEMBL6120978, “Anticancer activity of salinomycin quaternary phosphonium salts” (Eur J Med Chem, 2025).
# Activity calls are given as the source filed them. The rule behind the calls is not given here.
# Legend:
# SW480 = assay: Cytotoxicity against human SW480 cells incubated for 72 hrs by MTT assay; format: functional, cell-based; settings: SW480, 72 h
# SW-620 = assay: Cytotoxicity against human SW620 cells incubated for 72 hrs by MTT assay; format: functional, cell-based; settings: SW-620, 72 h
# PC-3 = assay: Cytotoxicity against human PC-3 cells incubated for 72 hrs by MTT assay; format: functional, cell-based; settings: PC-3, 72 h
# A549 [1] = assay: Cytotoxicity against human A549 cells incubated for 72 hrs by MTT assay; format: functional, cell-based; settings: A549, 72 h
# [2] = Cytotoxicity against human HaCaT cells incubated for 72 hrs by MTT assay; format: toxicity, cell-based
# [3] = Cytotoxicity against chinese hamster V79 cells incubated for 72 hrs by MTT assay; format: toxicity, cell-based, Cricetulus griseus
# [4] = Selectivity index, ratio of IC50 for cytotoxicity against human HaCaT cells to IC50 for cytotoxicity against human SW480 cells; format: toxicity, cell-based; settings: HaCaT cells versus SW480 cells, read-out: Ratio IC50
# [5] = Selectivity index, ratio of IC50 for cytotoxicity against human HaCaT cells to IC50 for cytotoxicity against human PC-3 cells; format: toxicity, cell-based; settings: HaCaT cells versus PC-3 cells, read-out: Ratio IC50
# [6] = Selectivity index, ratio of IC50 for cytotoxicity against human HaCaT cells to IC50 for cytotoxicity against human MDA-MB-231 cells; format: toxicity, cell-based; settings: HaCaT cells versus MDA-MB-231 cells, read-out: Ratio IC50
# [7] = Selectivity index, ratio of IC50 for cytotoxicity against chinese hamster V79 cells to IC50 for cytotoxicity against human SW480 cells; format: toxicity, cell-based; settings: V79 cells versus SW480 cells, read-out: Ratio IC50
# [8] = Selectivity index, ratio of IC50 for cytotoxicity against chinese hamster V79 cells to IC50 for cytotoxicity against human PC-3 cells; format: toxicity, cell-based; settings: V79 cells versus PC-3 cells, read-out: Ratio IC50
# [9] = Selectivity index, ratio of IC50 for cytotoxicity against chinese hamster V79 cells to IC50 for cytotoxicity against human MDA-MB-231 cells; format: toxicity, cell-based; settings: V79 cells versus MDA-MB-231 cells, read-out: Ratio IC50
# [10] = Selectivity index, ratio of IC50 for cytotoxicity against chinese hamster V79 cells to IC50 for cytotoxicity against human A549 cells; format: toxicity, cell-based; settings: V79 cells versus A549 cells, read-out: Ratio IC50
# A549 [11] = assay: Effect on mitochondrial mass in human A549 cells assessed as fold increase in mean fluorescence intensity at IC50 incubated for 48 hrs by MitoTracker Green FM staining based flow cytometry analysis relative to control; format: functional
# MDA-MB-231 [12] = assay: Effect on mitochondrial mass in human MDA-MB-231 cells assessed as fold increase in mean fluorescence intensity at IC50 incubated for 48 hrs by MitoTracker Green FM staining based flow cytometry analysis relative to control; format: functional
# A549 [13] = assay: Effect on mitochondrial mass in human A549 cells assessed as increase in MTGreen positive cells at IC50 incubated for 48 hrs by MitoTracker Green FM staining based flow cytometry analysis relative to control; format: functional
# MDA-MB-231 [14] = assay: Effect on mitochondrial mass in human MDA-MB-231 cells assessed as increase in MTGreen positive cells at IC50 incubated for 48 hrs by MitoTracker Green FM staining based flow cytometry analysis relative to control; format: functional
# A549 [15] = assay: Effect on mitochondrial function in human A549 cells assessed as fold increase in mean fluorescence intensity at IC50 incubated for 48 hrs by MitoTracker Red CMXRos staining based flow cytometry analysis relative to control; format: functional
# A549 [16] = assay: Effect on mitochondrial function in human A549 cells assessed as increase in MTRed CMXRos positive cells at IC50 incubated for 48 hrs by MitoTracker Red CMXRos staining based flow cytometry analysis relative to control; format: functional
# MDA-MB-231 [17] = assay: Effect on mitochondrial function in human MDA-MB-231 cells assessed as increase in MTRed CMXRos positive cells at IC50 incubated for 48 hrs by MitoTracker Red CMXRos staining based flow cytometry analysis relative to control; format: functional
# Mitochondrial membrane = assay: Induction of mitochondrial membrane potential loss in human A549 cells assessed as green fluorescence at IC50 incubated for 48 hrs MitoTracker Green FM staining based flow cytometry analysis (reference value: 8.93 %); format: cell membranes
# A549 [18] = assay: Induction of cell cycle arrest in human A549 cells assessed as accumulation of cells at SubG1 phase at IC50 incubated for 24 hrs by propidium iodide staining based flow cytometry analysis (reference value: 0.71 %); format: functional
# A549 [19] = assay: Induction of cell cycle arrest in human A549 cells assessed as accumulation of cells at S phase at IC50 incubated for 24 hrs by propidium iodide staining based flow cytometry analysis (reference value: 21.6 %); format: functional
# A549 [20] = assay: Induction of cell cycle arrest in human A549 cells assessed as accumulation of cells at G2 phase at IC50 incubated for 24 hrs by propidium iodide staining based flow cytometry analysis (reference value: 20.8 %); format: functional
# MDA-MB-231 [21] = assay: Induction of cell cycle arrest in human […] cells assessed as accumulation of cells at G0/G1 phase at IC50 incubated for 24 hrs by propidium iodide staining based flow cytometry analysis (reference value: 50.9 %); format: functional
# A549 [22] = assay: Induction of apoptosis in human A549 cells assessed as early apoptotic cells at IC50 incubated for 72 hrs by Annexin V-FITC staining based flow cytometry analysis (reference value: 1.68 %); format: functional
# A549 [23] = assay: Induction of apoptosis in human A549 cells assessed as late apoptotic cells at IC50 incubated for 72 hrs by Annexin V-FITC staining based flow cytometry analysis (reference value: 1.86 %); format: functional
# A549 [24] = assay: Induction of apoptosis in human A549 cells assessed as necrotic cells at IC50 incubated for 72 hrs by Annexin V-FITC staining based flow cytometry analysis (reference value: 0.97 %); format: functional
# MDA-MB-231 [25] = assay: Induction of apoptosis in human MDA-MB-231 cells assessed as viable cells at IC50 incubated for 72 hrs by Annexin V-FITC staining based flow cytometry analysis (reference value: 91.53 %); format: functional
# MDA-MB-231 [26] = assay: Induction of apoptosis in human MDA-MB-231 cells assessed as early apoptotic cells at IC50 incubated for 72 hrs by Annexin V-FITC staining based flow cytometry analysis (reference value: 4.23 %); format: functional
# MDA-MB-231 [27] = assay: Induction of apoptosis in human MDA-MB-231 cells assessed as necrotic cells at IC50 incubated for 72 hrs by Annexin V-FITC staining based flow cytometry analysis (reference value: 1.17 %); format: functional
# A549 [28] = assay: Induction of ROS generation of human A549 cells assessed as fold increase at IC50 incubated for 6 hrs by CellROX Green staining based spectrofluorometer analysis relative to control; format: functional
# Staphylococcus aureus [29] = assay: Antimicrobial activity against Staphylococcus aureus NCTC 4163 incubated for 18 hrs by twofold microdilution method; format: functional
# Staphylococcus aureus [30] = assay: Antimicrobial activity against Staphylococcus aureus ATCC 6538 incubated for 18 hrs by twofold microdilution method; format: functional
# Staphylococcus aureus [31] = assay: Antimicrobial activity against Staphylococcus aureus ATCC 29213 incubated for 18 hrs by twofold microdilution method; format: functional
# [32] = test system: Staphylococcus epidermidis; assay: Antimicrobial activity against Staphylococcus epidermidis ATCC 12228 incubated for 18 hrs by twofold microdilution method; format: functional
SMILES,IC50 (SW480) [µM],IC50 (SW-620) [µM],IC50 (PC-3) [µM],IC50 (A549 [1]) [µM],IC50 at 72 h [2] [µM],IC50 at 72 h [3] [µM],selectivity ratio [4],selectivity ratio [5],selectivity ratio [6],selectivity ratio [7],selectivity ratio [8],selectivity ratio [9],selectivity ratio [10],fold change (FC) (A549 [11]),fold change (FC) (MDA-MB-231 [12]),Activity (A549 [13]) [%],Activity (MDA-MB-231 [14]) [%],fold change (FC) (A549 [15]),Activity (A549 [16]) [%],Activity (MDA-MB-231 [17]) [%],further results
CCCC[P+](CCCC)(CCCC)CCCCOC(=O)[C@H](CC)[C@H]1CC[C@H](C)[C@H]([C@@H](C)[C@H](O)[C@H](C)C(=O)[C@H](CC)[C@H]2O[C@]3(C=C[C@@H](O)[C@]4(CC[C@@](C)([C@H]5CC[C@](O)(CC)[C@H](C)O5)O4)O3)[C@H](C)C[C@@H]2C)O1.[Br-],0.49,0.52,1.45,0.86,0.7,0.59,1.4,0.5,0.8,1.2,0.4,0.7,0.7,6,8,70,90,3,50,90,Activity (Mitochondrial membrane): 32.5%; Activity (A549 [18]): Active; Activity (A549 [19]): Active; Activity (A549 [20]): Active; Activity (MDA-MB-231 [21]): 76.2%; Activity (A549 [22]): 52.57%; Activity (A549 [23]): 14.59%; Activity (A549 [24]): 12.94%; Activity (MDA-MB-231 [25]): 33.55%; Activity (MDA-MB-231 [26]): 39.5%; Activity (MDA-MB-231 [27]): 5.15%; fold change (FC) (A549 [28]): 2; MIC (Staphylococcus aureus [29]): 2 mg/L; MIC (Staphylococcus aureus [30]): 2 mg/L; MIC (Staphylococcus aureus [31]): 2 mg/L; MIC [32]: 2 mg/L
CC[C@@H](C(=O)[C@@H](C)[C@@H](O)[C@H](C)[C@@H]1O[C@@H]([C@@H](CC)C(=O)OCCCC[P+](c2ccccc2)(c2ccccc2)c2ccccc2)CC[C@@H]1C)[C@H]1O[C@]2(C=C[C@@H](O)[C@]3(CC[C@@](C)([C@H]4CC[C@](O)(CC)[C@H](C)O4)O3)O2)[C@H](C)C[C@@H]1C.[Br-],0.39,0.14,1.35,0.67,1.23,0.13,3.2,0.9,1.7,0.3,0.1,0.2,0.2,6,8,70,90,3,50,50,Activity (Mitochondrial membrane): 41.7%; Activity (A549 [18]): 6%; Activity (A549 [19]): 13.2%; Activity (A549 [20]): 12%; Activity (MDA-MB-231 [21]): 77.7%; Activity (A549 [22]): 59.17%; Activity (A549 [23]): 3.9%; Activity (A549 [24]): 2.13%; Activity (MDA-MB-231 [25]): 51.49%; Activity (MDA-MB-231 [26]): 27.96%; Activity (MDA-MB-231 [27]): 5.23%; fold change (FC) (A549 [28]): 2; MIC (Staphylococcus aureus [29]): 2 mg/L; MIC (Staphylococcus aureus [30]): 1 mg/L; MIC (Staphylococcus aureus [31]): 1 mg/L; MIC [32]: 2 mg/L
